In BigSolDB 2.1:

CNC(=O)c1cc(Oc2ccc(NC(=O)Nc3ccc(Cl)c(C(F)(F)F)c3)c(F)c2)ccn1
solubility (mole fraction)
Conditions | 278.15 K | 283.15 K | 288.15 K | 293.15 K | 298.15 K | 303.15 K | 308.15 K | 313.15 K
in acetone | 0.0014 | 0.00173 | 0.00199 | 0.00247 | 0.00323 | 0.00375 | 0.00443 | 0.00526
in acetonitrile | 0.00014 | 0.000162 | 0.000168 | 0.000203 | 0.000248 | 0.000299 | 0.000381 | 0.000492
in ethanol | 0.000641 | 0.000677 | 0.000739 | 0.000865 | 0.000911 | 0.0011 | 0.00126 | 0.00145
in isopropanol | 0.000657 | 0.000679 | 0.000698 | 0.000769 | 0.000918 | 0.00109 | 0.00137 | 0.00161
in methanol | 0.000315 | 0.000351 | 0.00041 | 0.000422 | 0.000475 | 0.000581 | 0.000689 | 0.000797
in n-propanol | 0.000701 | 0.000769 | 0.000814 | 0.000908 | 0.00099 | 0.0012 | 0.00147 | 0.00172
